Patent US12061202B2, “Compositions and methods for bioluminescent detection using multifunctional probes” (Promega Corporation, priority 2019, dated 2024)

How the values were obtained:
Format in all cases: cell-based
[1] = test system: K562 cells; assay: Release of labeled proteins from dead cells, NanoBiT bioluminescence (HaloTag-SmBiT/HaloTag-LgBiT), K562; details: for Dead/Live at 5,000 cells/well: final labeling probe concentration 5 μM; for Dead, RLUs: dead (digitonin treated) cells; for Live, RLUs: live cells; for Dead/Live: ratio after background subtraction
Description: (§1) Next, the bifunctional labeling probe was thawed at room temperature and mixed. The probe was generally contained in DMSO. The bifunctional probe was added to the cells at a final concentration between about 0.5-10 μM. The cells were then mixed by gently pipetting and incubated for 30 minutes at 37° C. To inactivate unreactive free labeling probe, a 10× volume of pre-warmed (37° C.) cell culture medium containing 10% FBS was added, and the cells incubated for additional 5 minutes. The labeled cells were then spun down, and the labeling media removed. The cells were resuspended in fresh cell culture media at the concentration required for the experiment.
In some embodiments, one or more components of the NanoBiT® system can be used for measuring cell death of pre-labeled cell population in mixed cell cultures. Here, an exemplary protocol is described for using this assay in 96-well plates in […]: 50 μl of sample+50 μl of Detection Reagent+25 μl of Nano-Glo® Luciferase Assay substrate.
Labeled cells (1,250-10,000 cells/well) were plated with experimental treatment conditions (e.g., drug, effector cells, etc.) in 50 μl of appropriate medium. Wells without cells were included as negative controls to determine background luminescence in the media. Separate wells were included with pre-labeled cells for determining maximum release of labeled proteins. Detection Reagents were assembled: about 1 ml of Detection Reagent buffer (2×) was combined with about 1.25 μl of Detection Component 1 and 1.25 μl of Detection Component 2. If maximum release determination was needed, the required amount of prepared Detection Reagent (50 μl/per sample) was removed, and digitonin at 0.12 mg/ml concentration added (for example, add 6 μl to 1 ml of Detection Reagent).
About 50 μl of prepared Detection Reagent was added into all assay wells and negative (media) control wells. Detection Reagent with Digitonin was added into control wells for determining maximum release. The cells were placed into a tissue culture incubator, and the treatment continued up to 24 hours. Nano-Glo® Luciferase Assay Substrate was prepared by diluting (1:50) substrate into assay medium. The assay plate was then removed from the tissue culture incubator and equilibrated to room temperature for about 5 mins. About 25 μL of prepared substrate was added to the assay wells, mixed, and luminescence was read.
No labeling control was included for toxicity evaluation. After labeling, the cells were resuspended in appropriate medium, counted, and plated into wells of a 96-well plate at two-fold serial dilution starting from 20,000 cells/well. The Detection Reagents with or without digitonin were added as described above, and the plates were placed into a tissue culture incubator. After incubation, Nano-Glo® Luciferase Assay substrate was added to the samples, and luminescence was read. After reading luminescence, an equal volume of CellTiter-Glo was added to the samples to measure changes in viability. […] The linear range of the assay is underlined. Dead/Live is the ratio between luminescence signal of dead and live cells calculated after assay background subtraction (media control).

[2] = test system: SKBR3; assay: Release of labeled proteins from dead cells, NanoBiT bioluminescence, SKBR3; details: final labeling probe concentration 10 μM
Description: as §1
(§2) In some embodiments, one or more components of the NanoBiT® system can be used for measuring cell death of pre-labeled cell population in mixed cell cultures. […]
(§3) Labeled cells (1,250-10,000 cells/well) were plated with experimental treatment conditions (e.g., drug, effector cells, etc.) in 50 μl of appropriate medium. Wells without cells were included as negative controls to determine background luminescence in the media. […]
(§4) About 50 μl of prepared Detection Reagent was added into all assay wells and negative (media) control wells. […] About 25 μL of prepared substrate was added to the assay wells, mixed, and luminescence was read.

[3] = test system: A431; assay: Release of labeled proteins from dead cells, NanoBiT bioluminescence, A431; details: final labeling probe concentration 10 μM
Description: as §1, §2, §3, §4

O=C(NCCOCCOCCCCCCCl)c1ccc(C(=O)ON2C(=O)CCC2=O)cc1 [Labeling Probe, 2,5-dioxopyrrolidin-1-yl 4-((2-(2-((6-chlorohexyl)oxy)ethoxy)ethyl)carbamoyl)benzoate]
Dead/Live at 5,000 cells/well ([1]; at 4 h): 18.3
Dead/Live at 5,000 cells/well ([1]; at 24 h): 19.0
assay window ([1]; labeling at 2 μM): 7-8 fold
assay window ([1]; labeling at 5 μM): 18 fold
Dead, RLUs ([1]; probe 2 μM, 1,250 cells/well): 69,663 RLUs
Live, RLUs ([1]; probe 2 μM, 1,250 cells/well): 37,113 RLUs
Dead/Live ([1]; probe 2 μM, 1,250 cells/well): 5.0
Dead, RLUs ([1]; probe 2 μM, 2,500 cells/well): 88,448 RLUs
Live, RLUs ([1]; probe 2 μM, 2,500 cells/well): 40,600 RLUs
Dead/Live ([1]; probe 2 μM, 2,500 cells/well): 5.2
Dead, RLUs ([1]; probe 2 μM, 5,000 cells/well): 114,346 RLUs
Live, RLUs ([1]; probe 2 μM, 5,000 cells/well): 42,059 RLUs
Dead/Live ([1]; probe 2 μM, 5,000 cells/well): 7.6
Dead, RLUs ([1]; probe 2 μM, 10,000 cells/well): 154,018 RLUs
Live, RLUs ([1]; probe 2 μM, 10,000 cells/well): 47,861 RLUs
Dead/Live ([1]; probe 2 μM, 10,000 cells/well): 7.3
Dead, RLUs ([1]; probe 2 μM, 20,000 cells/well): 192,283 RLUs
Live, RLUs ([1]; probe 2 μM, 20,000 cells/well): 51,528 RLUs
Dead/Live ([1]; probe 2 μM, 20,000 cells/well): 7.9
Dead, RLUs ([1]; probe 5 μM, 1,250 cells/well): 236,022 RLUs
Live, RLUs ([1]; probe 5 μM, 1,250 cells/well): 43,298 RLUs
Dead/Live ([1]; probe 5 μM, 1,250 cells/well): 18.1
Dead, RLUs ([1]; probe 5 μM, 2,500 cells/well): 373,598 RLUs
Live, RLUs ([1]; probe 5 μM, 2,500 cells/well): 50,284 RLUs
Dead/Live ([1]; probe 5 μM, 2,500 cells/well): 18.7
Dead, RLUs ([1]; probe 5 μM, 5,000 cells/well): 591,060 RLUs
Live, RLUs ([1]; probe 5 μM, 5,000 cells/well): 60,873 RLUs
Dead/Live ([1]; probe 5 μM, 5,000 cells/well): 19.4
Dead, RLUs ([1]; probe 5 μM, 10,000 cells/well): 620,751 RLUs
Live, RLUs ([1]; probe 5 μM, 10,000 cells/well): 76,596 RLUs
Dead/Live ([1]; probe 5 μM, 10,000 cells/well): 13.1
Dead, RLUs ([1]; probe 5 μM, 20,000 cells/well): 477,185 RLUs
Live, RLUs ([1]; probe 5 μM, 20,000 cells/well): 78,093 RLUs
Dead/Live ([1]; probe 5 μM, 20,000 cells/well): 9.4
increase in light output in live cells as compared to media control ([1]; within the linear range of the assay): less than 2 fold
Dead/Live at 5,000 cells/well ([2]; at 4 h): 10.1
Dead/Live at 5,000 cells/well ([2]; at 24 h): 10.9
Dead/Live at 5,000 cells/well ([3]; at 4 h): 7.4
Dead/Live at 5,000 cells/well ([3]; at 24 h): 6.2
